In US20230331673A1, “COMPOSITION OF COMPOUNDS THAT MODULATE CELL METABOLISM AND METHODS OF USE” (CRESCENTA BIOSCIENCES, priority 2020, published 2023):

Each molecule was assayed on differentiated 3T3-L1 mouse adipocyte cells (assay: Adipocyte glucose consumption in differentiated 3T3-L1 mouse adipocyte cells (loss of glucose from medium, colorimetric)). Conditions: compound 10 μM, 22 to 24 hours, differentiated 3T3-L1 adipocytes, compound/DMSO, read-out: Glucose consumption (fold change) Mean.
Type: cell-based
Protocol: Activity of compounds on adipocyte glucose consumption was tested in differentiated 3T3-L1 mouse adipocyte cells. 3T3-L1 preadipocytes (ATCC) were routinely cultured in a growth medium composed of DMEM high-glucose (Sigma), 10% FBS (Gibco), 10 U/ml penicillin and 10 μg/ml streptomycin (P/S; Gibco). To induce adipogenic differentiation, a confluent layer of 3T3-L1 cells were incubated with the growth medium containing 2 μM rosiglitazone, 1 μM dexamethasone, 500 μM IBMX, and 1 μg/ml insulin (Sigma). Forty-eight (48) hours later (on day 2) and on days 4 and 6, medium of the cells was replaced with fresh medium containing 1 μg/ml insulin. On days 8 and 10, the medium was refreshed with regular growth medium and addition of insulin was omitted. On day 11 or 12, medium of the cells were replaced with fresh medium containing either the indicated compounds (10 μM) or the vehicle in which the compounds were dissolved (DMSO). The final concentration of DMSO was 0.1% (v/v). Growth medium containing 0.1% DMSO was incubated in culture wells containing no cells and used as control. Twenty-two to 24 hours later, medium was harvested and subjected to centrifugation at 10,000 g for 5 min. Glucose concentration in the supernatants was determined using a colorimetric assay (Glucose Assay Kit I, Eton Biosciences). Glucose consumption in compound and vehicle treated cells was measured as loss of glucose from the culture medium and represented as mean fold change (compound/DMSO) t standard deviation (SD).
With `CCCCCCC1CCCc2c(n(Cc3ccnc(OC)c3)c3c(C(=O)O)cccc23)C1` (stereo not shown) [7-hexyl-5-[(2-methoxypyridin-4-yl)methyl]-5H,6H,7H,8H,9H,10H-cyclohepta[b]indole-4-carboxylic acid] the fold induction at 10 µM was 1.12.
In the case of `CCCCCCC1CCc2c(n(Cc3ccccc3C#N)c3c(C(=O)O)cccc23)C1` (stereo not shown) [9-[(2-cyanophenyl)methyl]-2-hexyl-2,3,4,9-tetrahydro-1H-carbazole-8-carboxylic acid], the fold induction at 10 µM is reported as 1.13.
Molecule `CCCC1CCCCc2c1c1cccc(C(=O)O)c1n2Cc1cccc(C(N)=O)c1` (stereo not shown) [5-[(3-carbamoylphenyl)methyl]-10-propyl-5H,6H,7H,8H,9H,10H-cyclohepta[b]indole-4-carboxylic acid] has a fold induction at 10 µM of 1.02.
In the case of `CCCC1CCc2c1n(Cc1cccc(C#N)c1)c1c(C(=O)O)cccc21` (stereo not shown) [4-[(3-cyanophenyl)methyl]-3-propyl-1H,2H,3H,4H-cyclopenta[b]indole-5-carboxylic acid], the fold induction at 10 µM is reported as 1.38.
`CCCCCC1CCc2c(c3cccc(C(=O)O)c3n2Cc2cccc(C#N)c2)C1` (stereo not shown) [9-[(3-cyanophenyl)methyl]-3-pentyl-2,3,4,9-tetrahydro-1H-carbazole-8-carboxylic acid] gave a fold induction at 10 µM of 1.17.
`CCCCC1CCCCc2c1n(Cc1cccc(C(N)=O)c1)c1c(C(=O)O)cccc21` (stereo not shown) [6-butyl-5-[(3-carbamoylphenyl)methyl]-5H,6H,7H,8H,9H,10H-cyclohepta[b]indole-4-carboxylic acid] was tested, and the fold induction at 10 µM was 1.03.
`CCC1CCCc2c(n(Cc3cccc(C#N)c3)c3c(C(=O)O)cccc23)C1` (stereo not shown) [5-[(3-cyanophenyl)methyl]-7-ethyl-5H,6H,7H,8H,9H,10H-cyclohepta[b]indole-4-carboxylic acid] gave a fold induction at 10 µM of 1.16.
Molecule `CCC1CCc2c1n(Cc1cccc(C(N)=O)c1)c1c(C(=O)O)cccc21` (stereo not shown) [4-[(3-carbamoylphenyl)methyl]-3-ethyl-1H,2H,3H,4H-cyclopenta[b]indole-5-carboxylic acid] has a fold induction at 10 µM of 1.02.
`CCC1CCCc2c1n(Cc1cccc(C#N)c1)c1c(C(=O)O)cccc21` (stereo not shown) [9-[(3-cyanophenyl)methyl]-1-ethyl-2,3,4,9-tetrahydro-1H-carbazole-8-carboxylic acid] showed a fold induction at 10 µM of 1.11.
In the case of `CCCCCCC1CCCc2c(n(Cc3ccccc3C)c3c(C(=O)O)cccc23)C1` (stereo not shown) [7-hexyl-5-[(2-methylphenyl)methyl]-5H,6H,7H,8H,9H,10H-cyclohepta[b]indole-4-carboxylic acid], the fold induction at 10 µM is reported as 1.
Work on `CCC1CCCc2c1n(Cc1cccc(C(=O)O)c1)c1c(C(=O)O)cccc21` (stereo not shown) [9-[(3-carboxyphenyl)methyl]-1-ethyl-2,3,4,9-tetrahydro-1H-carbazole-8-carboxylic acid] yielded a fold induction at 10 µM of 1.09.
In the case of `CCCCC1CCc2c1n(Cc1cccc(C#N)c1)c1c(C(=O)O)cccc21` (stereo not shown) [3-butyl-4-[(3-cyanophenyl)methyl]-1H,2H,3H,4H-cyclopenta[b]indole-5-carboxylic acid], the fold induction at 10 µM is reported as 1.21.
For `CCCCCCC1CCCc2c(n(Cc3cccc(C#N)c3F)c3c(C(=O)O)cccc23)C1` (stereo not shown) [5-[(3-cyano-2-fluorophenyl)methyl]-7-hexyl-5H,6H,7H,8H,9H,10H-cyclohepta[b]indole-4-carboxylic acid], the fold induction at 10 µM was 1.36.
With `CCC1CCc2c1n(Cc1cccc(C#N)c1)c1c(C(=O)O)cccc21` (stereo not shown) [4-[(3-cyanophenyl)methyl]-3-ethyl-1H,2H,3H,4H-cyclopenta[b]indole-5-carboxylic acid] the fold induction at 10 µM was 1.12.
`CCCCCCC1CCc2c(n(Cc3cccnc3)c3c(C(=O)O)cccc23)C1` (stereo not shown) [2-hexyl-9-[(pyridin-3-yl)methyl]-2,3,4,9-tetrahydro-1H-carbazole-8-carboxylic acid] showed a fold induction at 10 µM of 1.21.
`CCCCC1CCCc2c(n(Cc3cccc(C)c3)c3c(C(=O)O)cccc23)C1` (stereo not shown) [7-butyl-5-[(3-methylphenyl)methyl]-5H,6H,7H,8H,9H,10H-cyclohepta[b]indole-4-carboxylic acid] showed a fold induction at 10 µM of 1.32.
`CCCCCC1Cc2c(n(Cc3cccc(C(N)=O)c3)c3c(C(=O)O)cccc23)C1` (stereo not shown) [4-[(3-carbamoylphenyl)methyl]-2-pentyl-1H,2H,3H,4H-cyclopenta[b]indole-5-carboxylic acid] showed a fold induction at 10 µM of 0.68.
`CCCCC1CCCc2c1n(Cc1cccc(C#N)c1)c1c(C(=O)O)cccc21` (stereo not shown) [1-butyl-9-[(3-cyanophenyl)methyl]-2,3,4,9-tetrahydro-1H-carbazole-8-carboxylic acid] was tested, and the fold induction at 10 µM was 1.14.
`CCCC1CCCCc2c1c1cccc(C(=O)O)c1n2Cc1cccc(C#N)c1` (stereo not shown) [5-[(3-cyanophenyl)methyl]-10-propyl-5H,6H,7H,8H,9H,10H-cyclohepta[b]indole-4-carboxylic acid] gave a fold induction at 10 µM of 1.18.
`CCCCC1CCCCc2c1c1cccc(C(=O)O)c1n2Cc1cccc(C(N)=O)c1` (stereo not shown) [10-butyl-5-[(3-carbamoylphenyl)methyl]-5H,6H,7H,8H,9H,10H-cyclohepta[b]indole-4-carboxylic acid] showed a fold induction at 10 µM of 1.14.
For `CCCCCCC1CCCc2c(n(Cc3cncc(C#N)c3)c3c(C(=O)O)cccc23)C1` (stereo not shown) [5-[(5-cyanopyridin-3-yl)methyl]-7-hexyl-5H,6H,7H,8H,9H,10H-cyclohepta[b]indole-4-carboxylic acid], the fold induction at 10 µM was 1.06.
Work on `CCCCCCC1CCCc2c(n(Cc3ccc(C(N)=O)cc3)c3c(C(=O)O)cccc23)C1` (stereo not shown) [5-[(4-carbamoylphenyl)methyl]-7-hexyl-5H,6H,7H,8H,9H,10H-cyclohepta[b]indole-4-carboxylic acid] yielded a fold induction at 10 µM of 1.05.
For `CCC1CCc2c(c3cccc(C(=O)O)c3n2Cc2cccc(C(N)=O)c2)C1` (stereo not shown) [9-[(3-carbamoylphenyl)methyl]-3-ethyl-2,3,4,9-tetrahydro-1H-carbazole-8-carboxylic acid], the fold induction at 10 µM was 1.1.
Work on `CCCCC1Cc2c(n(Cc3cccc(C(N)=O)c3)c3c(C(=O)O)cccc23)C1` (stereo not shown) [2-butyl-4-[(3-carbamoylphenyl)methyl]-1H,2H,3H,4H-cyclopenta[b]indole-5-carboxylic acid] yielded a fold induction at 10 µM of 1.14.
`CCCCCCC1CCCc2c(n(Cc3cccc(F)c3)c3c(C(=O)O)cccc23)C1` (stereo not shown) [5-[(3-fluorophenyl)methyl]-7-hexyl-5H,6H,7H,8H,9H,10H-cyclohepta[b]indole-4-carboxylic acid] was tested, and the fold induction at 10 µM was 1.14.
`CCCCC1CCCc2c(n(Cc3ccccc3F)c3c(C(=O)O)cccc23)C1` (stereo not shown) [7-butyl-5-[(2-fluorophenyl)methyl]-5H,6H,7H,8H,9H,10H-cyclohepta[b]indole-4-carboxylic acid] showed a fold induction at 10 µM of 1.11.
With `N#Cc1cccc(Cn2c3c(c4cccc(C(=O)O)c42)CCCC(CCc2ccccc2)C3)c1` (stereo not shown) [5-[(3-cyanophenyl)methyl]-7-(2-phenylethyl)-5H,6H,7H,8H,9H,10H-cyclohepta[b]indole-4-carboxylic acid] the fold induction at 10 µM was 1.02.
`CCCC1CCc2c(n(Cc3cccc(C#N)c3)c3c(C(=O)O)cccc23)C1` (stereo not shown) [9-[(3-cyanophenyl)methyl]-2-propyl-2,3,4,9-tetrahydro-1H-carbazole-8-carboxylic acid] showed a fold induction at 10 µM of 1.21.
With `CCCCCCC1CCCc2c(n(Cc3cccc(F)n3)c3c(C(=O)O)cccc23)C1` (stereo not shown) [5-[(6-fluoropyridin-2-yl)methyl]-7-hexyl-5H,6H,7H,8H,9H,10H-cyclohepta[b]indole-4-carboxylic acid] the fold induction at 10 µM was 1.25.
`CCC1CCc2c(n(Cc3cccc(C(N)=O)c3)c3c(C(=O)O)cccc23)C1` (stereo not shown) [9-[(3-carbamoylphenyl)methyl]-2-ethyl-2,3,4,9-tetrahydro-1H-carbazole-8-carboxylic acid] was tested, and the fold induction at 10 µM was 1.06.
Molecule `CCCCCCC1CCCc2c(n(Cc3cccc(C)c3)c3c(C(=O)O)cccc23)C1` (stereo not shown) [7-hexyl-5-[(3-methylphenyl)methyl]-5H,6H,7H,8H,9H,10H-cyclohepta[b]indole-4-carboxylic acid] has a fold induction at 10 µM of 1.13.
Molecule `CCCCC1CCCc2c1n(Cc1cccc(C(N)=O)c1)c1c(C(=O)O)cccc21` (stereo not shown) [1-butyl-9-[(3-carbamoylphenyl)methyl]-2,3,4,9-tetrahydro-1H-carbazole-8-carboxylic acid] has a fold induction at 10 µM of 1.02.
`CCCCC1CCCCc2c1c1cccc(C(=O)O)c1n2Cc1cccc(C#N)c1` (stereo not shown) [10-butyl-5-[(3-cyanophenyl)methyl]-5H,6H,7H,8H,9H,10H-cyclohepta[b]indole-4-carboxylic acid] gave a fold induction at 10 µM of 1.24.
Work on `CCCCCCC1CCCc2c(n(Cc3ccccc3C(N)=O)c3c(C(=O)O)cccc23)C1` (stereo not shown) [5-[(2-carbamoylphenyl)methyl]-7-hexyl-5H,6H,7H,8H,9H,10H-cyclohepta[b]indole-4-carboxylic acid] yielded a fold induction at 10 µM of 0.97.
`CCCCC1CCCc2c(n(Cc3cccc(C(N)=O)c3)c3c(C(=O)O)cccc23)C1` (stereo not shown) [7-butyl-5-[(3-carbamoylphenyl)methyl]-5H,6H,7H,8H,9H,10H-cyclohepta[b]indole-4-carboxylic acid] was tested, and the fold induction at 10 µM was 1.12.
`CCCCC1CCCc2c(n(Cc3ccc(C)cc3)c3c(C(=O)O)cccc23)C1` (stereo not shown) [7-butyl-5-[(4-methylphenyl)methyl]-5H,6H,7H,8H,9H,10H-cyclohepta[b]indole-4-carboxylic acid] showed a fold induction at 10 µM of 1.27.
`CCCCCCC1CCc2c(n(Cc3cccc(C(N)=O)c3)c3c(C(=O)O)cccc23)C1` (stereo not shown) [9-[(3-carbamoylphenyl)methyl]-2-hexyl-2,3,4,9-tetrahydro-1H-carbazole-8-carboxylic acid] showed a fold induction at 10 µM of 1.13.
